Experimental findings from ChEMBL document CHEMBL1126949 (J Med Chem, 1993) are described below.

The term Ki denotes a measure of affinity in units of concentration, obtained from inhibition or displacement. Lower therefore signals higher affinity.

This assay addresses D(3) dopamine receptor (Rattus norvegicus, UniProt P19020). Description: biochemical.

The structures appear in SMILES notation.

Sequence of D(3) dopamine receptor (P19020 whole entry): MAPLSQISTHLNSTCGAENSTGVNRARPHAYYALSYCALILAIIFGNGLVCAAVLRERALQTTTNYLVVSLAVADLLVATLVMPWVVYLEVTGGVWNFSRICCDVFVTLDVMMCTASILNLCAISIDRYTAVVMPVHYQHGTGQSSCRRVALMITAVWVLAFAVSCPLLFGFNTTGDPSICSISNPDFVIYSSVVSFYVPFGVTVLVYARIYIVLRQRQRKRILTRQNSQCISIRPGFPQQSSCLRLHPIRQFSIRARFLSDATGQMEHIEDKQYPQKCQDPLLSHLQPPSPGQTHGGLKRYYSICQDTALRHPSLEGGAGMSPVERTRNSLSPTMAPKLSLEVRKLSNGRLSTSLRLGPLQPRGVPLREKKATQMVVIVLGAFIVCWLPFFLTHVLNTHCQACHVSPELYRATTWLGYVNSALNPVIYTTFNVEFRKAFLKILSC

The molecule `CCCN(CCC)C1CCc2cccc(O)c2C1` (stereo unspecified) [8-OH-DPAT] had a Ki of 248 nM.
